Reference: ChEMBL document CHEMBL4411299, “A class of novel tubulin polymerization inhibitors exert effective anti-tumor activity via mitotic catastrophe” (Eur J Med Chem, 2019)
Calls of active or inactive are those of the source. No cut-off for these calls is given here.

Tests used:
HeLa [1] = assay: Cell cycle arrest in human HeLa cells assessed as reduction in accumulation of cells at S phase up to 0.4 uM after 24 hrs by propidium iodide staining-based flow cytometric analysis; assay type: functional
[2] = Clearance in Sprague-Dawley rat at 1.5 mg/kg, iv administered as single dose by LC-MS/MS analysis; assay type: ADME, organism-based; conditions: in vivo
[3] = AUC (0 to t) in male Sprague-Dawley rat at 1.5 mg/kg, iv administered as single dose by LC-MS/MS analysis; assay type: ADME, organism-based; conditions: in vivo
[4] = Half life in Sprague-Dawley rat at 1.5 mg/kg, iv administered as single dose by LC-MS/MS analysis; assay type: ADME, organism-based; conditions: in vivo
A2780 = assay: Antiproliferative activity against human A2780 cells after 48 hrs by MTT assay; assay type: functional; conditions: A2780, 48 h
[5] = Toxicity in mouse xenografted with human HeLa cells assessed as effect on body weight at 5 to 20 mg/kg, iv administered every other day up to 20 days; assay type: organism-based; conditions: in vivo, 480 h
[6] = MRT (0 to infinity) in female Sprague-Dawley rat at 1.5 mg/kg, iv administered as single dose by LC-MS/MS analysis; assay type: ADME, organism-based; conditions: in vivo
HeLa [7] = assay: Induction of apoptosis in human HeLa cells assessed as late apoptotic cells at 0.05 uM after 24 hrs by Annexin V-FITC/propidium iodide staining-based flow cytometric analysis (reference value: 3.51%); assay type: functional
Tubulin (Homo sapiens) [8] = molecular target: T1, Tubulin (Homo sapiens) (UniProt P68371+Q9H4B7+P0DPH7+P68366+Q13509+Q71U36+P04350+Q3ZCM7+P07437+P68363+Q9BQE3+Q6PEY2+Q13885+Q9BVA1+Q9BUF5); assay: Inhibition of tubulin polymerization in human HeLa cells assessed as multipolar spindle formation at 0.02 after 12 hrs by DAPI staining-based confocal fluorescence microscopic analysis; assay type: cell-based
[9] = Clearance in male Sprague-Dawley rat at 1.5 mg/kg, iv administered as single dose by LC-MS/MS analysis; assay type: ADME, organism-based; conditions: in vivo
Tubulin (Homo sapiens) [10] = molecular target: T1, Tubulin (Homo sapiens); assay: Inhibition of tubulin polymerization in human HeLa cells assessed as induction of shorter microtubule fibers at 0.02 uM after 12 hrs by DAPI staining-based confocal fluorescence microscopic analysis; assay type: cell-based
HeLa [11] = assay: Induction of apoptosis in human HeLa cells assessed as increase in cleaved PARP level at 0.02 to 0.1 uM after 24 hrs by Western blot analysis; assay type: functional, cell-based
HeLa [12] = assay: Induction of apoptosis in human HeLa cells assessed as necrotic cells at 0.1 uM after 24 hrs by Annexin V-FITC/propidium iodide staining-based flow cytometric analysis (reference value: 0.05%); assay type: functional
HeLa [13] = assay: Antitumor activity against human HeLa cells xenografted in nude mouse assessed as tumor weight at 5 mg/kg, iv administered every other day up to 20 days (reference value: 1.014 +/- 0.116g); assay type: functional
HeLa [14] = assay: Induction of apoptosis in human HeLa cells assessed as viable cells at 0.1 uM after 24 hrs by Annexin V-FITC/propidium iodide staining-based flow cytometric analysis (reference value: 92.8%); assay type: functional; conditions: read-out: Activity
HeLa [15] = assay: Induction of apoptosis in human HeLa cells assessed as late apoptotic cells at 0.1 uM after 24 hrs by Annexin V-FITC/propidium iodide staining-based flow cytometric analysis (reference value: 3.51%); assay type: functional
[16] = MRT (0 to infinity) in male Sprague-Dawley rat at 1.5 mg/kg, iv administered as single dose by LC-MS/MS analysis; assay type: ADME, organism-based; conditions: in vivo
[17] = AUC (0 to infinity) in Sprague-Dawley rat at 1.5 mg/kg, iv administered as single dose by LC-MS/MS analysis; assay type: ADME, organism-based; set-up: dose 1.5 mg/kg, route intravenous, time infinity; conditions: in vivo
Tubulin (Homo sapiens) [18] = molecular target: T1, Tubulin (Homo sapiens); assay: Inhibition of tubulin polymerization in human HeLa cells assessed as induction of multinuclear giant cells at 0.05 after 12 hrs by DAPI staining-based confocal fluorescence microscopic analysis; assay type: cell-based
HT-29 = assay: Antiproliferative activity against human HT-29 cells after 48 hrs by MTT assay; assay type: functional; conditions: HT-29, 48 h
HeLa [19] = assay: Induction of apoptosis in human HeLa cells assessed as early apoptotic cells at 0.05 uM after 24 hrs by Annexin V-FITC/propidium iodide staining-based flow cytometric analysis (reference value: 3.65%); assay type: functional
HeLa [20] = assay: Inhibition of colony formation in human HeLa cells at 0.1 uM after 2 weeks by crystal violet staining-based assay relative to control; assay type: functional; conditions: 336 h
[21] = Half life in monkey liver microsomes at 5 uM in presence of NADPH regenerating system by LC-MS/MS analysis; assay type: ADME, Macaca mulatta, Microsome; conditions: rhesus monkey
[22] = Apparent volume of distribution in female Sprague-Dawley rat at 1.5 mg/kg, iv administered as single dose by LC-MS/MS analysis; assay type: ADME, organism-based; conditions: in vivo, read-out: Vd(app)
[23] = Stability in human liver microsomes assessed as parent compound remaining at 5 uM after 2 hrs in presence of NADPH regenerating system by LC-MS/MS analysis; assay type: ADME, Microsome
MDA-MB-231 = assay: Antiproliferative activity against human MDA-MB-231 cells after 48 hrs by MTT assay; assay type: functional; conditions: MDA-MB-231, 48 h
HeLa [24] = assay: Antitumor activity against human HeLa cells xenografted in nude mouse assessed as tumor growth inhibition at 20 mg/kg, iv administered every other day up to 20 days relative to control; assay type: functional; conditions: 480 h, read-out: TGI
[25] = Cmax in female Sprague-Dawley rat at 1.5 mg/kg, iv administered as single dose by LC-MS/MS analysis; assay type: ADME, organism-based; set-up: dose 1.5 mg/kg, route intravenous; conditions: in vivo
[26] = Cmax in Sprague-Dawley rat at 1.5 mg/kg, iv administered as single dose by LC-MS/MS analysis; assay type: ADME, organism-based; set-up: dose 1.5 mg/kg, route intravenous; conditions: in vivo
HeLa [27] = assay: Antitumor activity against human HeLa cells xenografted in nude mouse assessed as tumor weight at 10 mg/kg, iv administered every other day up to 20 days (reference value: 1.014 +/- 0.116g); assay type: functional
[28] = MRT (0 to t) in male Sprague-Dawley rat at 1.5 mg/kg, iv administered as single dose by LC-MS/MS analysis; assay type: ADME, organism-based; conditions: in vivo
[29] = MRT (0 to infinity) in Sprague-Dawley rat at 1.5 mg/kg, iv administered as single dose by LC-MS/MS analysis; assay type: ADME, organism-based; conditions: in vivo
[30] = Half life in human liver microsomes at 5 uM in presence of NADPH regenerating system by LC-MS/MS analysis; assay type: ADME, Microsome
[31] = AUC (0 to t) in Sprague-Dawley rat at 1.5 mg/kg, iv administered as single dose by LC-MS/MS analysis; assay type: ADME, organism-based; conditions: in vivo
HeLa [32] = assay: Antitumor activity against human HeLa cells xenografted in nude mouse assessed as tumor growth inhibition administered intravenously every other day up to 20 days; assay type: functional, cell-based
HepG2 = assay: Antiproliferative activity against human HepG2 cells after 48 hrs by MTT assay; assay type: functional; conditions: HepG2, 48 h
[33] = Apparent volume of distribution in male Sprague-Dawley rat at 1.5 mg/kg, iv administered as single dose by LC-MS/MS analysis; assay type: ADME, organism-based; conditions: in vivo, read-out: Vd(app)
Tubulin (Homo sapiens) [34] = molecular target: T1, Tubulin (Homo sapiens); assay: Inhibition of tubulin polymerization in human HeLa cells assessed as induction of mitotic phase arrest at 0.02 uM after 12 hrs by DAPI staining-based confocal fluorescence microscopic analysis; assay type: cell-based

## COC(=O)N1N=C(c2cccc(C)c2)CC1c1cc(OC)c(OC)c(OC)c1 (stereo not drawn)
HeLa [1]
  Activity: Active
[2]
  clearance: 65.3 mL/min/kg
[3]
  AUC(0-t): 475 ng·h/mL
[4]
  half-life: 0.9 h
A2780
  GI50: 600 nM
[5]
  Activity: Non-Toxic
[6]
  MRT inf: 1.18 h
HeLa [7]
  Activity: 4.95%
Tubulin (Homo sapiens) [8]
  Activity: Active
[9]
  clearance: 51 mL/min/kg
Tubulin (Homo sapiens) [10]
  Activity: Active
HeLa [11]
  Activity: Active
HeLa [12]
  Activity: 0.829%
HeLa [13]
  Activity: 0.812 g
HeLa [14]
  viability at 0.1 µM: 75.8%
HeLa [15]
  Activity: 6.03%
[16]
  MRT inf: 1 h
[17]
  AUC(0-inf): 414 ng·h/mL
Tubulin (Homo sapiens) [18]
  Activity: Active
HT-29
  GI50: 100 nM
HeLa [19]
  Activity: 10.2%
HeLa [20]
  inhibition at 0.1 µM: ≤ 80%
[21]
  half-life at 5 µM: 2.06 h
[22]
  Vd: 6.24 L/kg
[23]
  Stability: 31.1%
MDA-MB-231
  GI50: 140 nM
HeLa [24]
  inhibition in vivo at 20 mg/kg: 72.9%
[25]
  Cmax: 531 ng/mL
[26]
  Cmax: 594 ng/mL
HeLa [27]
  Activity: 0.631 g
[28]
  MRT last: 0.85 h
[29]
  MRT inf: 1.09 h
[30]
  t1/2: 2.8455 h
[31]
  AUC(0-t): 397 ng·h/mL
HeLa [32]
  TGI: Dose-dependent effect
HepG2
  GI50: 980 nM
[33]
  Vd: 3.82 L/kg
Tubulin (Homo sapiens) [34]
  Activity: Active
